The source of these data is patent publication US10807958B2, “1,4-bis(3-aminopropyl)piperazine derivative and its use” (INSERM (Institut National de la Sante et de la Recherche …, priority 2015, dated 2020).

This assay relates to Neuroblastoma SKNSH-SY5Y cells expressing the human Tau isoform 412. Kind of assay: 1D gel electrophoresis / Western blot of Tau expression and phosphorylation in treated cells. To be noted: 10 μM, vs induced but non-treated condition, FIG. 1. It counts as cell-based. From the text: Pan-Tau and phospho-dependent Tau antibodies included Tau-Nter (M19G, 1/10 000, Sergeant et al., 1999), Tau-Cter (1/10 000, Sergeant et al., 1999, Le Freche et al., 2012), Tau-1 (1/5000, Merck Millipore), S199P (directed against the phospho-serine 199, 1/4000, Sergeant et al., 1999), Tau-Phospho S396 (directed against the phosphor-serine 396, 1/10000, Lifetechnologies), Tau-Phospho 404 (1/10 000, Lifetechnologies), 422 (clone 2H9, a homemade monoclonal antibody developed against a phospho-peptide containing the phosphorylated serine 422 residue of Tau, numbering according to the longest human brain Tau-441 isoform), AT8 (1/1000, Thermo Scientific), AT270 (1/2000, Thermo Scientific), AT100 (1/1000, Thermo Scientific). Neuron specific enolase (1/10 000), β-actin (1/5000) and β-tubulin (1/10 000) were from Sigma-Aldrich.
Human neuroblastoma cell line SKNSH-SY5Y cells expressing the human Tau isoform 412 (with the exon 2 and 10 encoding sequences) (or SY5Y-Tau46) was as previously described in Bretteville et al., 2009.
Neuroblastoma SKNSH-SY5Y cells expressing the human Tau isoform 412 (with the exon 2 and 10 encoding sequences) were treated with 10 μM of the hydrochloride salt of N-[3-(4-{3-[Bis(2-methylpropyl)amino]propyl}piperazin-1-yl)propyl]-1,2,3,4-tetrahydroacridin-9-amine (Example 6, hereinafter named “Compound I⋅HCl”) which was diluted in the culture medium as described in Bretteville et al., 2009.
For the western-blot analysis of Tau proteins, SDS-PAGE was performed according to the manufacturer's instructions using Bis-Tris 4-12% gradient acrylamide gel (NuPage® Bis-Tris PreCast 12 wells, Life Technologies). The apparent molecular weights were calibrated using the molecular weight markers (Novex and Magic Marks, Life Technologies). Electrophoresis was performed under a continuous tension of 100V/per gel for 1 h. […]
The effect of the compound of Formula I on Tau phosphorylation was analyzed in vitro and in vivo. […]
Expression and total phosphorylation was assessed by 1D and 2D gel electrophoresis using phospho-dependent and pan-Tau antibodies (FIGS. 1 and 2). […]
(In general: Immunoblotting shows a protein as a band on a membrane.)

`CC(C)CN(CCCN1CCN(CCCNc2c3c(nc4ccccc24)CCCC3)CC1)CC(C)C` [compound of Formula I, N-[3-(4-{3-[Bis(2-methylpropyl)amino]propyl}piperazin-1-yl)propyl]-1,2,3,4-tetrahydroacridin-9-amine]: the “Tau phosphorylation at serine 199” value (S199P antibody) is recorded as “reduced”. For the same molecule, the “Tau phosphorylation at serine 396” value (S396 antibody) is given as “reduced”. The Tau expression entry (pan-Tau antibodies) is recorded as “No significant change”.
